# What was measured:
# [1] = test system: Staphylococcus aureus ATTC 6538; experiment: Antimicrobial disk susceptibility test (CLSI M2-A9), S. aureus; type: cell-based
# Method: (§1) Test for the antimicrobial activity of the novel compounds may be performed according to the standards of Clinical and Laboratory Standards Institute, Performance Standards for Antimicrobial Disk Susceptibility Tests; approved Standard; M2-A), vol. 26 NO. 1 9th ed.
# (§2) A test for the antimicrobial activity of the novel compounds were performed according to the standards of Clinical and Laboratory Standards Institute, Performance Standards for Antimicrobial Disk Susceptibility Tests; approved Standard; M2-A), vol. 26 NO. 1 9th ed. The samples were dissolved in 10 ml of sterile Milli-Q water by magnetic stirring overnight at 20° C.
# (§3) Two doses of the samples were tested in duplicate, a) and b). The size of the inhibition zones were measured in mm after incubation.
# [2] = test system: Escherichia coli ATCC 8739; experiment: Antimicrobial disk susceptibility test (CLSI M2-A9), E. coli; type: cell-based
# Method: as §1, §2, §3
# [3] = test system: Pseudomonas aeruginosa ATCC 9027; experiment: Antimicrobial disk susceptibility test (CLSI M2-A9), P. aeruginosa; type: cell-based
# Method: as §1, §2, §3
# [4] = test system: Klebsiella pneumonia ATCC 35657; experiment: Antimicrobial disk susceptibility test (CLSI M2-A9), K. pneumonia; type: cell-based
# Method: as §1, §2, §3
# [5] = test system: human airway epithelia; conditions: reference 6; cited from earlier work
# [6] = 10 μg/disk, one value per organism (reference)
molecule,measurement,setting,value
CCC1OC(=O)C(C)C(OC2CC(C)(OC)C(C)C(C)O2)C(C)C(OC2CC(N(C)C)CC(C)O2)C(C)(O)CC(C)CN(C)C(C)C(O)C1(C)O (centres unmarked) [PP008],"size of the inhibition zone, S. aureus a)","[1]; 5 μg/disk, duplicate a)",<1 mm
same,"size of the inhibition zone, S. aureus b)","[1]; 5 μg/disk, duplicate b)",<1 mm
same,"size of the inhibition zone, S. aureus a)","[1]; 10 μg/disk, duplicate a)",<1 mm
same,"size of the inhibition zone, S. aureus b)","[1]; 10 μg/disk, duplicate b)",<1 mm
same,"size of the inhibition zone, E. coli a)","[2]; 5 μg/disk, duplicate a)",<1 mm
same,"size of the inhibition zone, E. coli b)","[2]; 5 μg/disk, duplicate b)",<1 mm
same,"size of the inhibition zone, E. coli a)","[2]; 10 μg/disk, duplicate a)",<1 mm
same,"size of the inhibition zone, E. coli b)","[2]; 10 μg/disk, duplicate b)",<1 mm
same,"size of the inhibition zone, P. aeruginosa a)","[3]; 5 μg/disk, duplicate a)",<1 mm
same,"size of the inhibition zone, P. aeruginosa b)","[3]; 5 μg/disk, duplicate b)",<1 mm
same,"size of the inhibition zone, P. aeruginosa a)","[3]; 10 μg/disk, duplicate a)",<1 mm
same,"size of the inhibition zone, P. aeruginosa b)","[3]; 10 μg/disk, duplicate b)",<1 mm
same,"size of the inhibition zone, K. pneumonia a)","[4]; 5 μg/disk, duplicate a)",<1 mm
same,"size of the inhibition zone, K. pneumonia b)","[4]; 5 μg/disk, duplicate b)",<1 mm
same,"size of the inhibition zone, K. pneumonia a)","[4]; 10 μg/disk, duplicate a)",<1 mm
same,"size of the inhibition zone, K. pneumonia b)","[4]; 10 μg/disk, duplicate b)",<1 mm
CC[C@H]1OC(=O)[C@H](C)[C@@H](O[C@H]2C[C@@](C)(OC)[C@@H](O)[C@H](C)O2)[C@H](C)[C@@H](O[C@@H]2O[C@H](C)C[C@H](N(C)C)[C@H]2O)[C@](C)(O)C[C@@H](C)CN(C)[C@H](C)[C@@H](O)[C@]1(C)O [azithromycin],effect on transepithelial electrical resistance / processing of tight junction proteins,[5],may increase the transepithelial electrical resistance
CC[C@H]1OC(=O)[C@H](C)[C@@H](O[C@H]2C[C@@](C)(OC)[C@@H](O)[C@H](C)O2)[C@H](C)[C@@H](O[C@@H]2O[C@H](C)C[C@H](N(C)C)[C@H]2O)[C@](C)(O)C[C@@H](C)C(=O)[C@H](C)[C@@H](O)[C@]1(C)O [erythromycin],effect on transepithelial electrical resistance / processing of tight junction proteins,[5],not observed
Gentamicin [reference compound],"size of the inhibition zone, S. aureus",[1]; [6],30.4 mm
same,"size of the inhibition zone, E. coli",[2]; [6],27.9 mm
same,"size of the inhibition zone, P. aeruginosa",[3]; [6],27.2 mm
same,"size of the inhibition zone, K. pneumonia",[4]; [6],24.7 mm
penicillin,effect on transepithelial electrical resistance / processing of tight junction proteins,[5],not observed

# Reference: US20160031925A1, “AZITHROMYCIN ANTIMICROBIAL DERIVATIVES WITH NON-ANTIBIOTIC PHARMACEUTICAL EFFECT” (priority 2013, published 2016)
